This note sets out measurements from paper PMC9785311, “Effect of Structural Differences in Naringenin, Prenylated Naringenin, and Their Derivatives on the Anti-Influenza Virus Activity and Cellular Uptake of Their Flavanones” (Pharmaceuticals, 2022).

Where two headings read alike, the source gives them in different places.

Data set [1] relates to influenza virus A/PR/8/34. In words: microbe, parasite or virus in culture. The format is cell-based, Type A influenza virus H1N1 (PR/8/34). As to conditions: for SI (Selectivity index = CC50/IC50): CC50 50% cytotoxicity concentration in MDCK cells (MTT), IC50 against A/PR/8/34.
The subject of data set [2] is MDCK cells. The data set can be described thus: Intracellular distribution by fluorescence microscopy of fixed cells. The format is cell-based, canine. As to conditions: 30 μM, 180 min exposure, fixed with 4% paraformaldehyde, DAPI. As for the experimental part: Cells cultured on glass plates were exposed to a concentration of 30 μM for 180 min. The exposed cells were washed with PBS and the compounds were removed from the medium. The cells were then fixed with 4% paraformaldehyde and observed under a fluorescence microscope. […] The amount of naringenin taken up by the cells may be small. Moreover, fluorescence was detected for prenylated naringenin.
Figure 4 Analysis of prenylated naringenin and naringenin fluorescence distribution by imaging. After removing the medium, cells were treated with 30 μM compound for 180 min and fixed with 4% paraformaldehyde. Fixed cells were stained with DAPI (blue). These images show fluorescence of 8-prenylnaringenin (8-PN; A), 6-prenylnaringenin (6-PN; B), and naringenin (C). Scale bars = 50 μm.
Cells were cultured on glass plates and incubated in a medium supplemented with the compound for 180 min. They were then washed and fixed with 4% paraformaldehyde for 30 min. After washing with PBS, DAPI staining was performed. Intracellular distribution was photographed and observed using an inverted fluorescence phase-contrast microscope (BZ-X800, Keyence, Osaka, Japan).

Data set [3] deals with MDCK cells. In words: Efflux of prenylated naringenin after intracellular saturation. Conditions: for Release of intracellular compound from the cell: after 180 min exposure, compound-free DMEM containing 1% FBS, 0-240 min; for Fluorescence intensity change after 120 min culture in compound-free medium compared to 0 min: cells saturated by 180 min exposure, then DMEM containing 1% FBS for 120 min. The format is cell-based, canine. As for the experimental part:
Based on our results, we examined the kinetics of intracellular prenylated naringenin in Dulbecco’s Modified Eagle Medium (DMEM) containing 1% fetal bovine serum (FBS). […] The intracellular kinetics changed greatly depending on the position of the prenyl group. After 120 min of culturing in the medium, the fluorescence intensity of 8-PN and 6-PN increased approximately 1.6-fold and 9.4-fold, respectively, compared to that at 0 min (Figure 6).
Figure 5 Efflux of prenylated naringenin after intracellular saturation. The amount of the compound in the cells was saturated by exposure for 180 min, and the cells were cultured in Dulbecco’s Modified Eagle Medium (DMEM) for 0, 120, and 240 min. After removing the medium, cells were fixed with 4% paraformaldehyde and stained with DAPI (blue). These images show 8-PN (A) and 6-PN (B) fluorescence. Scale bars = 50 μm.
Figure 6 Efflux and fluorescence intensity of intracellular prenylated naringenins. Fluorescence intensity of 8-PN and 6-PN from Figure 5. The standard deviation bars are indicated on each bar graph. *** p < 0.001.

The subject of data set [4] is influenza virus A/PR/8/34. In words: Time-of-addition assay. The format is cell-based, Type A influenza virus H1N1 (PR/8/34). As to conditions: 30 μM, MOI 0.01. An excerpt: We performed a time-of-addition assay to verify the effect of the prenyl group position on viral growth inhibition. Figure 7A,B show virus viability when exposed to each prenylated naringenin for each time duration. […] In previous studies, inhibitory effects differed depending on the flavonoid backbone. The anti-influenza virus effect depends on the position of the prenyl group, which is a novel observation of the present study.
Figure 7 Effect of prenylated naringenin on virus viability. (A) 8-PN and 6-PN (30 μM). (B) Schedule of the experiment. Cells were infected with influenza virus A/PR/8/34 at a multiplicity of infection of 0.01 in 24-well plates. After infection at each time point, the cells were harvested and viruses were assayed using a focus-forming reduction assay. […] Data are representative of three independent experiments. Standard deviation bars indicate each bar graph (*** p < 0.001, ** p < 0.01).
We conducted a time-of-addition assay as previously described. DMEM containing prenylated naringenin (30 μM) was added at −1–0 h (adsorption), 0–8 h (replication), 0–4 h, 0–2 h, 2–4 h, 4–8 h, 4–6 h, and 6–8 h. Furuta et al. estimated the intracellular cycle of infected cells before extracellular budding to be 8 h, and growth stages were assumed to occur at 2 h intervals.

For data set [5], the system named is MDCK cells. In words: Cellular uptake by fluorescence microscopy. As to conditions: 30 μM compound, phenol red-free medium, 60-360 min, about 20 cells per time point.
[6] abbreviates: A/PR/8/34 strain in MDCK cells, mean ± SD of three independent experiments, ND = not detected.

Turning to `C=CCc1c(O)cc2c(c1O)C(=O)C[C@@H](c1ccc(O)cc1)O2` (racemic) [2a, 6-allylnaringenin], the IC50 entry in data set [1] (setting [6]) was “weaker activities than 6-PN”; in data set [1] (PR/8, MDCK), 103 ± 3.8 µM. Also, the “SI (Selectivity index = CC50/IC50)” value in data set [1] is given as 0.8.
Turning to `CC1(C)OC1Cc1c(O)cc(O)c2c1OC(c1ccc(O)cc1)CC2=O` (stereo not drawn) [1a], the melting point lay in the range of 191.5 to 193 °C. The “SI (Selectivity index = CC50/IC50)” value in data set [1] stood at 2.7. In data set [1] (PR/8, MDCK), this compound yielded an IC50 of 59 ± 9 µM.
With `C=C(C)C(Cc1c(O)cc(O)c2c1OC(c1ccc(O)cc1)CC2=O)OC(C)=O` (stereo not drawn) [1b], the melting point was in the range of 189 to 191.5 °C. Also, the IC50 result in data set [1] (setting [6]) is “lost and not active”.
With `CC(=O)Oc1ccc(C2CC(=O)c3c(O)cc(OC(C)=O)c(CCC(C)C)c3O2)cc1` (stereo not drawn) [1c], the “SI (Selectivity index = CC50/IC50)” value in data set [1] turned out to be 6.3. This compound gave a half-inhibitory concentration (IC50) in data set [1] (PR/8, MDCK) of 42 ± 2.1 µM.
Taken in the same sequence, the figures for `CC(C)CCc1c(O)cc(O)c2c1OC(c1ccc(O)cc1)CC2=O` (stereo not drawn) [1d] were 3.0 and 61 ± 14 µM.
As to `CC(=O)OC(Cc1c(O)cc(O)c2c1OC(c1ccc(O)cc1)CC2=O)C(C)C` (stereo not drawn) [1e], the melting point was in the range of 155 to 156 °C. Further, the concentration for half-maximal inhibition (IC50) result in data set [1] (setting [6]) was “lost and not active”.
With `CC(C)CCc1c(O)cc2c(c1O)C(=O)CC(c1ccc(O)cc1)O2` (stereo not drawn) [2b], the IC50 result in data set [1] (setting [6]) was “weaker activities than 6-PN”; in data set [1] (PR/8, MDCK) it was 58 ± 15.2 µM. In addition, the “SI (Selectivity index = CC50/IC50)” value in data set [1] was found to be 1.3.
In turn, `O=C1CC(c2ccc(O)cc2)Oc2cc(O)c(CC=C3CCCCC3)c(O)c21` (stereo not drawn) [2c] came in with a melting point of 204.4 to 205.2 °C. For the same compound, in data set [1] (setting [6]), the IC50 result was “not detected”.
Taken in the same sequence, the figures for `O=C1CC(c2ccc(O)cc2)Oc2cc(O)c(CCC3CCCCC3)c(O)c21` (stereo not drawn) [2d] were 213.3 to 215.3 °C and “not detected”.
In the case of `CC(C)=CCc1c(O)cc2c(c1O)C(=O)C[C@@H](c1ccc(O)cc1)O2` [6-PN, 6-prenylnaringenin], in data set [1], the “SI (Selectivity index = CC50/IC50)” value is given as 5.5. For the same compound, in data set [1] (PR/8, MDCK), half-maximal inhibition (IC50) was put at 38 ± 4.7 µM. Also, in data set [2], the “Intracellular distribution of fluorescence” value was “localize to the cytoplasmic periphery”. In data set [3], the “Release of intracellular compound from the cell” value was “released relatively quickly” and the “Fluorescence intensity change after 120 min culture in compound-free medium compared to 0 min” value is around 9.4 fold. Besides, in data set [4], the “Inhibition of virus growth, 2 h exposure (4–6 h after infection)” value is recorded as “high inhibition tendency” and the “Inhibition of virus growth, late stage (6–8 h)” value was “block the late stage of viral growth”. Also, in data set [5], the “Fluorescence intensity (intracellular uptake)” value is given as “high fluorescence intensity”.
For the compound `CC(C)=CCc1c(O)cc(O)c2c1O[C@H](c1ccc(O)cc1)CC2=O` [8-PN, 8-prenylnaringenin], the “SI (Selectivity index = CC50/IC50)” value in data set [1] is reported as 4.9. The same compound showed an IC50 in data set [1] (PR/8, MDCK) of 24 ± 0.6 µM. Further, the “Intracellular distribution of fluorescence” value in data set [2] is “distributed mostly in the cytoplasm and nucleus”. Also, in data set [3], the “Release of intracellular compound from the cell” value is listed as “released from the cell slowly” and the “Fluorescence intensity change after 120 min culture in compound-free medium compared to 0 min” value is on record as “approximately 1.6 fold”. Also, in data set [4], the “Inhibition of virus growth, exposure during virus adsorption period (−1–0 h)” value was “high inhibitory effect” and the “Inhibition of virus growth, late stage (6–8 h)” value is recorded as “block the late stage of viral growth”. Besides, the “Fluorescence intensity (intracellular uptake)” value in data set [5] is reported as “high fluorescence intensity”.
Regarding `CC(=O)Oc1ccc(C2CC(=O)c3c(O)cc(OC(C)=O)cc3O2)cc1` (stereo not drawn) [Naringenin-4′,7′-diacetate], the IC50 entry in data set [1] (A/PR/8/34 strain in MDCK cells, mean ± SD of three independent experiments, ND = not detected, listed as naringenin-4′,7-diacetate) was “markedly lost its anti-influenza activity”; in data set [1] (A/PR/8/34 strain in MDCK cells, mean ± SD of three independent experiments, ND = not detected, listed as naringenin-4′,7′-diacetate), “lost its activity”.
`CCC(CC)O[C@@H]1C=C(C(=O)O)C[C@H](N)[C@H]1NC(C)=O` [oseltamivir acid, reference compound] came in with an IC50 in data set [1] (PR/8, MDCK) of 0.002 µM.
On to (±)-Naringenin [reference compound], for which the IC50 in data set [1] (A/PR/8/34 strain in MDCK cells, mean ± SD of three independent experiments, ND = not detected, read-out: IC50) worked out at 290 ± 16.2 µM. Moreover, the “SI (Selectivity index = CC50/IC50)” value in data set [1] was determined as 4.9.
